Experimental data as given in patent US7084239B1, “Cancer peptides of NY-ESO-1/CAG-3” (The United States of America as represented by the …, priority 1997, dated 2006).

What was measured:
Assay type in all cases: cell-based, human
CTL clone 5 = assay: GM-CSF release by CTL clone 5 on peptide-pulsed EBV B cells; settings: for CTL clone 5 GM-CSF release: 1510EBV cells incubated with peptide at 0.1 μg/ml for 90 min; for GM-CSF release by CTL clone 5, EXPT. 2 (586EBV): 586EBV cells; for GM-CSF release by CTL clone 5, EXPT. 2 (586EBV) / GM-CSF release by CTL clone 5, EXPT. 1 (1510EBV): peptide 0.1 μg/ml for 90 min, 5 × 10^4 CTL clone 5; for GM-CSF release by CTL clone 5, EXPT. 1 (1510EBV): 1510EBV cells
Protocol: (§1) DNA transfection and GM-CSF assay were done as previously described (Wang, R. F., P. F. Robbins, Y. Kawakami, X. Q. Kang, and S. A. Rosenberg, 1995, J. Exp. Med. 181:799–804). Briefly, […] of DNA carrying a different fragment and 50 ng of the HLA-A31 DNA were mixed with 2 μl of lipofectamine in 100 μl of serum-free DMEM for 15–45 min. The DNA/lipofectamine mixture was then added to the COS-7 (5×10^4) cells and incubated overnight. The following day, cells were washed twice with DMEM medium. TIL586, CTL clone 5 or CTL clone 10 were added at a concentration of 5×10^4 cells/well in AIM-V medium containing 120 IU/ml of IL-2. After 18–24 h incubation, 100 μl of supernatant was collected and GM-CSF was measured in a standard ELISA assay (R+D Systems, Minneapolis, Minn.). For peptides, 586EBV, 1510EBV and T2 cells were incubated with peptides at 37° C. for 90 min, and then washed three times with AIM-V medium containing 120 IU/ml of IL-2. T cells were added and incubated for additional 18–24 h, 100 μl of supernatant was collected for GM-CSF assay. In some experiments, IFN-γ release assays were done using a standard ELISA kit (Endogen, Woburn, Mass.).
These peptides were pulsed onto HLA-A31-positive 1510EBV B cells and tested for their ability to stimulate cytokine release by CTL clone 5. […] CTL clone 10 recognized the same peptide as CTL clone 5 (data not shown). […] The reactivity of CTL clone 5 was undetectable when either the ESO9-54 or the ESO10-127 peptides were used at concentrations below 100 nM to sensitize EBV cells.

CTL clone 2 [1] = assay: T cell recognition (GM-CSF release) of peptide-pulsed EBV B cells by CTL clone 2; settings: peptide pulsed onto 1510EBV or 586EBV B cells
From the text: (§2) FIGS. 7A–7C. An alternative open reading frame of the NY-ESO-1 gene and antigenic peptides recognized by CTL. FIG. 7A. Identification of antigenic peptides from the ORF2. Thirty peptides were synthesized based on all potential ORFs and screened. Representative data are shown here. Seven peptides derived from ORF2 (see FIG. 3A) were pulsed on HLA-A31 positive 1510EBV B cells and tested for T cell recognition based on GM-CSF release ([…], SEQ ID NO: 123; […], SEQ ID NO: 124; […], SEQ ID NO: 125; […], SEQ ID NO: 46; […], SEQ ID NO: 47; […], SEQ ID NO: 126; and […], SEQ ID NO: 127). 1510 EBV alone was used as a negative control. FIG. 7B. 1510EBV B cells were labeled with chromium for 2 h. The ESORF2-10-18 peptide was then pulsed on the chromium-labeled […] (solid square) and HLA-A31-negative 1102EBV (open circle) at different concentrations. 1510EBV pulsed with ESO10-53, which was recognized by CTL clone 5, was used for the specificity control (solid triangle). After peptide incubation and three washes, cytolysis of target cells by CTL-clone 2 was determined in a 4-h chromium release assay at an E:T ratio of 20:1. FIG. 7C. Several tumor lines and fresh breast tumors were tested for recognition by CTL clone 2 to determine whether the ORF2 is translated in different tumors. 1510EBV B cells pulsed with […] (SEQ ID NO: 25) (ESO10-53), […] (SEQ ID NO: 47) (ORF2-10-18), or alone were included to evaluate the reactivity and specificity of CTL clone 2 and 5. Expression of HLA-A31 on the tumor cells is indicated.
as §1, with “For peptides, 586EBV, 1510EBV and T2 cells were incubated with peptides at 37° C. for 90 min, and then washed three times with AIM-V medium containing 120 IU/ml of IL-2. T cells were added and incubated for additional 18–24 h, 100 μl of supernatant was collected for GM-CSF assay. In some experiments, IFN-γ release assays were done using a standard ELISA kit (Endogen, Woburn, Mass.).” left out
CTL clone 5 and TIL1244 were used for the specificity controls. […] To test the hypothesis that CTL may recognize a peptide from a gene product translated from an alternative open reading frame of the same gene, synthetic peptides were made with HLA-A31 Binding motif on the basis of amino acid sequence predicted from the second open reading frames (ORF2) (FIG. 3A). […]

CTL clone 2 [2] = assay: Chromium release cytolysis of peptide-pulsed target cells by CTL clone 2; settings: 4-h chromium release, E:T ratio of 20:1 (FIG. 7B)
From the text: as §2, with “Expression of HLA-A31 on the tumor cells is indicated.” left out
Cytolytic assay was done as previously described (Kawakami, Y et al., 1994, Proc. Natl. Acad. Sci. USA 91:6458–62). […] The cells were washed again, counted, and then mixed with TIL586 or CTL clone 5 at the indicated ratio of effector: targets (E:T). Chromium release was measured after 4 h incubation. […] Percentage of specific lysis was determined from the equation (A−B)/(C−B)×100 where A is lysis of 586EBV B cells by TIL586 or clone 5 in the presence of a peptide, B is spontaneous release from 586EBV B cells in presence of the same peptide but in the absence of effector cells, and C is the maximum chromium release. […]

| Sequence | CTL clone 5 GM-CSF release (CTL clone 5) | GM-CSF release by CTL clone 5, EXPT. 2 (586EBV) (CTL clone 5) | GM-CSF release by CTL clone 5, EXPT. 1 (1510EBV) (CTL clone 5) | also measured |
| --- | --- | --- | --- | --- |
| GPRGAGAAR (listed as Homo sapiens) [ESO9-45] | <50 (SEQ. ID NO: 10) pg/ml | – | – | – |
| AVGPGGGAPR (listed as Homo sapiens) | – | 512 (SEQ. ID NO: 37) | 556 | – |
| ASGPGGGAPK (listed as Homo sapiens) | – | <50 (SEQ. ID NO: 39) | <50 | – |
| AASGLNGCCR (listed as Homo sapiens) [ESO10-68] | <50 (SEQ. ID NO: 21) pg/ml | – | – | – |
| LAQPPSGQRR (listed as Homo sapiens) [ESO10-171] | <50 (SEQ. ID NO: 22) pg/ml | – | – | – |
| ATGPGGGAPR (listed as Homo sapiens) | – | 1158 (SEQ. ID NO: 38) | 1630 | – |
| RGPRGAGAAR (listed as Homo sapiens) [ESO10-44] | <50 (SEQ. ID NO: 23) pg/ml | – | – | – |
| LAAQERRVPR (listed as Homo sapiens) [ESORF2-10-18] | – | – | – | Recognition by CTL clone 2, in words (CTL clone 2 [1]): recognized; Lysis of peptide-pulsed HLA-A31-negative 1102EBV by CTL clone 2 (CTL clone 2 [2]): failed to lyse; Lysis of peptide-pulsed 1510EBV by CTL clone 2 (CTL clone 2 [2]; peptide titration): capable of lysing |
| IRLTAADHR (listed as Homo sapiens) [ESO9-35] | <50 (SEQ. ID NO: 13) pg/ml | – | – | – |
| AGAARASGPGGGAPR (listed as Homo sapiens) | – | 532 (SEQ. ID NO: 26) | 728 | – |
| TPMEAELARR (listed as Homo sapiens) [ESO10-98] | <50 (SEQ. ID NO: 19) pg/ml | – | – | – |
| TSGPGGGAPR (listed as Homo sapiens) | – | 346 (SEQ. ID NO: 41) | 320 | – |
| SGPGGGAPR (listed as Homo sapiens) [ESO9-54] | 304 (SEQ. ID NO: 14) pg/ml | <50 (SEQ. ID NO: 14) | <50 | Recognition by CTL clone 5 (cytokine release), in words (CTL clone 5; peptide pulsed onto HLA-A31-positive 1510EBV or 586EBV B cells): weakly recognized |
| FLAQPPSGQR (listed as Homo sapiens) [ESO10-170] | <50 (SEQ. ID NO: 18) pg/ml | – | – | – |
| RSGPGGGAPR (listed as Homo sapiens) | – | <50 (SEQ. ID NO: 44) | <50 | – |
| ALGPGGGAPR (listed as Homo sapiens) | – | 378 (SEQ. ID NO: 36) | 200 | – |
| PMEAELARR [ESO9-99] | <50 (SEQ. ID NO: 8) pg/ml | – | – | – |
| LNGCCRCGAR (listed as Homo sapiens) [ESO10-72] | <50 (SEQ. ID NO: 24) pg/ml | – | – | – |
| AAGPGGGAPR (listed as Homo sapiens) | – | 676 (SEQ. ID NO: 34) | 688 | – |

| Sequence | CTL clone 5 GM-CSF release (CTL clone 5) | GM-CSF release by CTL clone 5, EXPT. 2 (586EBV) (CTL clone 5) | GM-CSF release by CTL clone 5, EXPT. 1 (1510EBV) (CTL clone 5) | also measured |
| --- | --- | --- | --- | --- |
| LSGPGGGAPR (listed as Homo sapiens) | – | <50 (SEQ. ID NO: 43) | <50 | – |
| VSGPGGGAPR (listed as Homo sapiens) | – | 666 (SEQ. ID NO: 42) | 825 | – |
| GPGGGAPR (listed as Homo sapiens) | – | <50 (SEQ. ID NO: 31) | <50 | – |
| ASGPGGGAPRG (listed as Homo sapiens) | – | <50 (SEQ. ID NO: 32) | <50 | – |
| GAARASGPGGGAPR (listed as Homo sapiens) | – | 678 (SEQ. ID NO: 27) | 659 | – |
| LAQPPSGQR (listed as Homo sapiens) [ESO9-89] | <50 (SEQ. ID NO: 11) pg/ml | – | – | – |
| ATPMEAELAR (listed as Homo sapiens) [ESO10-97] | <50 (SEQ. ID NO: 17) pg/ml | – | – | – |
| SGPGGGAPRG (listed as Homo sapiens) | – | <50 (SEQ. ID NO: 33) | <50 | – |
| TIRLTAADHR (listed as Homo sapiens) [ESO10-34] | <50 (SEQ. ID NO: 16) pg/ml | – | – | – |
| TPMEAELAR (listed as Homo sapiens) [ESO9-98] | <50 (SEQ. ID NO: 7) pg/ml | – | – | – |
| AAQERRVPR (listed as Homo sapiens) [ESORF2-9-19] | – | – | – | Recognition by CTL clone 2, in words (CTL clone 2 [1]): recognized |
| RCGARGPESR (listed as Homo sapiens) [ESO10-77] | <50 (SEQ. ID NO: 20) pg/ml | – | – | – |
| ASGPGGGAPH (listed as Homo sapiens) | – | <50 (SEQ. ID NO: 40) | <50 | – |
| AARASGPGGGAPR (listed as Homo sapiens) | – | 738 (SEQ. ID NO: 28) | 844 | – |
| RASGPGGGAPR (listed as Homo sapiens) | – | 708 (SEQ. ID NO: 30) | 851 | – |
| GATGGRGPR (listed as Homo sapiens) [ESO9-38] | <50 (SEQ. ID NO: 9) pg/ml | – | – | – |
| AQPPSGQRR (listed as Homo sapiens) [ESO9-90] | <50 (SEQ. ID NO: 6) pg/ml | – | – | – |
| ARASGPGGGAPR (listed as Homo sapiens) | – | 738 (SEQ. ID NO: 29) | 840 | – |
| AIGPGGGAPR (listed as Homo sapiens) | – | 550 (SEQ. ID NO: 35) | 428 | – |
